Test results as given in article PMC10369496, “Cu(II) and Zn(II) Complexes of New 8-Hydroxyquinoline Schiff Bases: Investigating Their Structure, Solution Speciation, and Anticancer Potential” (Inorganic Chemistry, 2023).
Entries after “also recorded” stand apart in the source; their conditions may differ. Where two headings read alike, the source gives them in different places.

Tests used:
[1] = Distribution coefficient, shake-flask n-octanol/buffered aqueous solution pH 7.40; format: physicochemical; conditions: n-octanol/water partitioning, pH 7.40, 25 °C; for logD at 3 h: n-octanol/buffered aqueous solution, pH 7.4, read-out: log D7.4
Method: The distribution coefficients (D7.4) of the compounds were determined by the shake-flask method in n-octanol/buffered aqueous solution at pH 7.40 (25.0 ± 0.2 °C). The ligand precursors and the complexes were dissolved in 10 mM HEPES presaturated with n-octanol. The aqueous solution and n-octanol (1:1 ratio) were gently mixed with a 360° vertical rotation (∼20 rpm) for 3 h; then, the samples were centrifuged at 3000 rpm for 5 min. Two phases were separated, and their UV–vis spectra were recorded. The D7.4 value was calculated as follows [drawing 1] 1

[2] = Thermodynamic solubility in water at pH 7.40; format: physicochemical; conditions: pH 7.40, 10 mM HEPES, 37 °C, 24 h incubation
Method: Thermodynamic solubility (S) of the free ligands and complexes was determined for the saturated solutions in water at pH 7.40 in 10 mM HEPES at 37.0 ± 0.2 °C. The concentration of the compounds was determined by UV–vis spectrophotometry using stock solutions with known concentrations dissolved in 100% DMSO, 50%, and 25% (v/v) DMSO/buffered aqueous solutions for the calibration.

[3] = test system: Human malignant melanoma A375 cells; assay: Antiproliferative activity in A375 cells, CellTiter-Glo 3D luminescent method; format: cell-based
Method: (§1) Cell culture media and antibiotics were obtained from Gibco (Thermo Fisher Scientific). Human malignant melanoma A375 cells (ATCC CRL-1619TM) and human keratinocytes HaCaT (CLS 300493) were cultured in DMEM-Glutamax supplemented with 10% fetal bovine serum (FBS), hereafter designated as complete medium. For human keratinocytes, 100 IU/mL of penicillin and 100 μg/mL of streptomycin (Gibco, Thermo Fisher Scientific) were also used. The cell lines were kept at 37 °C with a 5% CO2 atmosphere. The maintenance of cell cultures was performed every 2–3 days until the cells reached a confluency of about 80%.
The CellTiter-Glo 3D kit (Promega) was used to assess the viability of the A375 cells in the presence or absence (negative control) of increasing concentrations of the free ligands and complexes. The kit detects adenosine triphosphate, which is proportional to the number of viable cells, therefore allowing the assessment of cell proliferation. First, A375 cells were plated at a concentration of 5 × 10^4 cells/mL in 96-well plates (200 μL/well) and cultured for 24 h in the culture conditions described above. Then, cells were incubated with the free ligands (1–100 μM), Zn(II) complexes (1 to 80 μM), and Cu(II) complexes (1–20 μM) in 96-well plates. After an incubation period of 48 h, 100 μL of each well was discarded. Then, 40 μL of CellTiter-Glo 3D reagent was added into each well and the contents were mixed vigorously for 15 min to induce cell lysis at room temperature. Finally, the luminescence was measured using a Varioskan Lux multimode plate reader (Thermo Scientific). Values presented are mean ± standard deviation (SD) of two independent biological experiments with 4 technical replicates per condition.
(§2) GraphPad Prism8 (GraphPad Software, San Diego, CA) was used to analyze cell proliferation, and values were plotted and fit a standard log dose–response curve to generate IC50 values.

[4] = test system: human keratinocytes HaCaT; assay: MTT assay in nontumorigenic HaCaT cells; format: cell-based; conditions: for IC50: HaCaT, 48 h incubation, MTT colorimetric method; for Selectivity index (SI): IC50 HaCaT/IC50 A375
Method: as §1
The MTT assay was used to assess cell viability in the presence of increasing concentrations of selected compounds. Briefly, HaCaT cells were plated at a concentration of 5 × 10^4 cells/mL in 96-well plates (200 μL/well) and cultured for 24 h in the culture conditions described above. Then, cells were incubated with free ligands and metal complexes at concentrations ranging from 5 to 30 μM. Negative controls were cells maintained in complete culture medium. The culture medium was discarded after 48 h, cells were washed with PBS (2 times), and then 50 μL of MTT at 0.5 mg/mL in incomplete medium was added to all wells. After 2–3 h of incubation period at 37 °C, 100 μL of DMSO was added to each well to solubilize the formazan crystals, and absorbance was measured at 570 nm using a microplate reader Model 680 (Bio-Rad, CA). Two independent experiments were carried out, with six replicates per condition.
as §2

[5] = Stability in aqueous HEPES buffer (5% DMSO) by UV–vis; format: physicochemical; conditions: HEPES 10 mM pH 7.4 with 5% (v/v) DMSO; 100–135 μM; 24 h
Method: Stock solutions of each complex were freshly prepared in DMSO and diluted with HEPES buffer (10 mM, pH 7.4), ensuring that the organic solvent content was less than 5% (v/v). The samples were monitored by UV–vis absorption spectrophotometry for 6 consecutive hours, and a final measurement was done after 24 h.

[6] = Stability by 1H NMR in DMSO-d6 or 30% DMSO-d6/H2O; format: physicochemical; conditions: 1 mM
Method: A Bruker Avance III HD Ascend 500 Plus instrument (Billerica, MA) was used for NMR spectroscopic titrations and time-dependent studies applying a WATERGATE water suppression pulse scheme in the presence of 10% (v/v) D2O/H2O, and the sodium trimethylsilylpropanesulfonate (DSS) standard was added to samples as the internal reference. ^1H NMR titrations were carried out for the ligand precursors in the presence of 0.1 M KCl. For free ligands and complexes’ stability measurements, ^1H NMR spectra were recorded in DMSO-d6 or 30% (v/v) DMSO-d6/H2O.

[7] = Proton dissociation constants by UV–vis spectrophotometric titrations; format: physicochemical; conditions: water with 0.10 M KCl, I = 0.1 M KCl, t = 25.0 °C
Method: (§3) The UV–vis titrations were performed with a 0.10 M carbonate-free KOH solution using a Metrohm 665 Dosimat buret and an Orion 710A pH-meter equipped with a Metrohm combined electrode (type 6.0234.100). […] The average water ionization constant (pKw) is 13.76 ± 0.05. The path length was 1 cm, and the temperature was 25.0 ± 0.1 °C. An ionic strength of 0.10 M KCl was used to keep the activity coefficients constant. The samples were deoxygenated by bubbling argon through the system for 10 min. Spectrophotometric titrations were carried out using an Agilent Cary 8454 diode array spectrophotometer (Santa Clara, CA) in water on samples containing the ligands at 60 μM, in the pH range from 1.5 to 11.5 in the absence or in the presence of 1, 0.5, or 0.25 equiv of Cu(II) and Zn(II) ions, using 10.00 mL of sample volumes. Proton dissociation constants (Ka) of the ligand precursors, as well as stoichiometry and overall stability constants (β) of the metal complexes, were calculated by the computer program PSEQUAD.[20]

[8] = Overall stability (formation) constants of Cu(II) complexes by UV–vis spectrophotometric titrations; format: physicochemical; conditions: I = 0.1 M KCl, t = 25.0 °C; for log β (CuL2): bis-ligand Cu(II) complex; for log β (CuL): mono-ligand Cu(II) complex
Method: as §3

[9] = Overall stability (formation) constants of Zn(II) complexes by UV–vis spectrophotometric titrations; format: physicochemical; conditions: I = 0.1 M KCl, t = 25.0 °C; for log β (ZnL2): bis-ligand Zn(II) complex; for log β (ZnL): mono-ligand Zn(II) complex
Method: as §3

melanoma cell line A375 = test system: melanoma cell line A375; set-up: method as in doi:10.1016/j.phytol.2021.07.008; conditions: A375, MTT method; cited from earlier work
[10] = target: T1, bovine serum albumin (BSA) (Bos taurus, UniProt P02769); assay: Fluorescence quenching titration of BSA; format: binding
T1 construct: bovine serum albumin (BSA) stock solutions of lyophilized protein
T1 sequence (P02769 25-607): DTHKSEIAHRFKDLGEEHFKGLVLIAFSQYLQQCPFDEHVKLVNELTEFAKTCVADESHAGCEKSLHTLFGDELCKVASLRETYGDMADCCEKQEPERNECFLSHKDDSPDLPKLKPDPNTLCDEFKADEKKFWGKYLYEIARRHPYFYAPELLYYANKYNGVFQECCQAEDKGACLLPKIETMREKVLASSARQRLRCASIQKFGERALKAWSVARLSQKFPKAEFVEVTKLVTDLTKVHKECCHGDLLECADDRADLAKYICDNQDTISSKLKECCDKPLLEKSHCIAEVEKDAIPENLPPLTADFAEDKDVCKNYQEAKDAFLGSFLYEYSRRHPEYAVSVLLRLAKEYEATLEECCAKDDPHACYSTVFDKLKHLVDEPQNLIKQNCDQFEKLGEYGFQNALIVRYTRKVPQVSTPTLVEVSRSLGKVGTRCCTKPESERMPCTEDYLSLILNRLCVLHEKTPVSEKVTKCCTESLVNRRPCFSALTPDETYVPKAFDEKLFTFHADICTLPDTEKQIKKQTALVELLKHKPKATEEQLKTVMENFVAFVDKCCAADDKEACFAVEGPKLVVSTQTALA
Method: The steady-state fluorescence emission spectra of a solution of 0.5–1.0 μM BSA (in HEPES buffer) were recorded between 310 and 500 nm with λexc = 295 nm after additions of the complexes’ solutions directly to the cuvette (optical path of 1.0 cm). The UV–vis spectrum of each sample was used to make corrections and minimize the inner filter and reabsorption interferences.[22] Solutions with the same concentration of complex and no BSA were recorded and used as blank spectra.
Data were analyzed by fitting a second-order equation, which accounts for both static and dynamic quenching [drawing 2] 2 where I0 and I are the fluorescence intensities in the absence and presence of quencher (Q), and KS and KD are the static and dynamic quenching constants, respectively.
The Stern–Volmer equation was used for low quencher concentrations to determine the Stern–Volmer quenching constant (KSV), a measure of the quenching strength [drawing 3] 3

A375 cells = assay: Guava ViaCount assay by flow cytometry; format: cell-based, human; conditions: A375, 48 h; Zn(L2)2 at 15 μM, Cu2(L2)4 at 12 μM
Method: For the Guava ViaCount assay, A375 cells were plated at a concentration of 8 × 10^4 cells/mL in 24-well plates (1 mL/well) and cultured for 24 h in the culture conditions described above.[23] Cells were then incubated with Zn(L2)2 and Cu2(L2)4 at concentrations of 15 and 12 μM, respectively. The positive control, dacarbazine (DTIC), was tested at 70 μM. Cells in the presence of complete culture medium constituted the negative control group. After an incubation period of 48 h, cell culture supernatants were collected, and adherent cells were detached using TrypLEExpress (Invitrogen). Detached cells were then added to supernatants, and the wells were washed using PBS with 2% FBS to recover any remaining cells. The recovered suspension was centrifuged for 5 min at 700 g. The supernatants were discarded, and cells were suspended in PBS with 2% FBS. Then, on a 96-well plate, 20 μL of cell suspension was incubated with 180 μL of Guava ViaCount reagent (Merck Millipore, Darmstadt, Germany) for 5 min at r.t. Using a Guava EasyCyte 5HT Flow cytometer (Guava Technologies, Inc., Hayward, CA), data were collected and analyzed with the ViaCount software module with an acquisition of 10,000 events per sample. GraphPad Prism8 was used to analyze cell proliferation (GraphPad Software, San Diego, CA). One experiment was carried out, with three replicates per condition.

[11] = quinolinium nitrogen, read-out: pKa (NqH+)
[12] = Homo sapiens, A-375, A375, 48 h incubation

## [O-]c1cccc2ccc(/C=N/CCN3CCCCC3)nc12.[O-]c1cccc2ccc(/C=N/CCN3CCCCC3)nc12.[Zn+2] [Zn(L1)2]
[1]
  log D7.4: >1.5
[2]
  Thermodynamic solubility S7.4: 694 µM
[3]; A375, 48 h incubation
  IC50: 9.1 ± 1.5 µM
[4]
  IC50: 22.3 ± 0.7 µM
  Selectivity index (SI): 2.5
[5]
  stability in aqueous media: did not show signs of decomposition
[6]
  period the 1H NMR spectra remained unchanged: 8 days

## Oc1cccc2ccc(/C=N/CCCN3CCOCC3)nc12 [L3]
[7]; phenol OH, read-out: pKa (OH)
  pKa: 8.78 ± 0.03
[7]; [11]
  pKa: 2.77 ± 0.03
[8]
  log β (CuL2): 15.57 ± 0.01
  log β (CuL): 8.34 ± 0.01
[9]
  log β (ZnL2): 13.68 ± 0.04
  log β (ZnL): 6.87 ± 0.01
[1]
  logD at 3 h: 0.76
[3]; [12]
  IC50: 25.8 ± 0.3 µM
[4]; Homo sapiens
  IC50: > 30 µM

## [O-]c1cccc2ccc(/C=N/CCCN3CCOCC3)nc12.[O-]c1cccc2ccc(/C=N/CCCN3CCOCC3)nc12.[Zn+2] [Zn(L3)2]
[1]
  log D7.4: >1.5
[2]
  Thermodynamic solubility S7.4: 87 µM
[3]; A375, 48 h incubation
  IC50: 9.3 ± 1.1 µM
[4]
  IC50: 26.3 ± 0.7 µM
  Selectivity index (SI): 2.8
[5]
  stability in aqueous media: suggests hydrolysis; also recorded: significant hydrolysis

## N.N.[Cl][Pt][Cl] [Cisplatin]
Melanoma cell line A375
  IC50: 10.9 ± 1.3 µM

## [Cu+2].[O-]c1cccc2ccc(/C=N/CCCN3CCOCC3)nc12.[O-]c1cccc2ccc(/C=N/CCCN3CCOCC3)nc12 [Cu(L3)2]
[1]
  log D7.4: >1.5
[2]
  Thermodynamic solubility S7.4: 1821 µM
[10]; fit at low quencher concentrations, HEPES pH 7.4
  Stern–Volmer quenching constant KSV: (2.20 ± 0.07) × 10^5 M^–1
[10]; molar ratio complex:BSA = 10, λexc = 295 nm
  % quenching: 48%
[3]; A375, 48 h incubation
  IC50: 6.7 ± 0.2 µM
[4]
  IC50: 8.1 ± 0.2 µM
  Selectivity index (SI): 1.2

## Oc1cccc2ccc(/C=N/CCN3CCOCC3)nc12 [L2]
[7]; phenol OH, read-out: pKa (OH)
  pKa: 8.84 ± 0.03
[7]; [11]
  pKa: 2.83 ± 0.03
[8]
  log β (CuL2): 15.77 ± 0.03
  log β (CuL): 7.98 ± 0.02
[9]
  log β (ZnL2): 14.32 ± 0.02
  log β (ZnL): 6.86 ± 0.04
[1]
  logD at 3 h: 0.64
[3]; [12]
  IC50: 15.9 ± 0.1 µM
[4]; Homo sapiens
  IC50: > 30 µM

## Oc1cccc2ccc(/C=N/CCN3CCCCC3)nc12 [L1]
[7]; phenol OH, read-out: pKa (OH)
  pKa: 8.77 ± 0.03
[7]; [11]
  pKa: 2.8 ± 0.03
[8]
  log β (CuL2): 15.60 ± 0.02
  log β (CuL): 8.36 ± 0.01
[9]
  log β (ZnL2): 14.42 ± 0.01
  log β (ZnL): 6.90 ± 0.03
[1]
  logD at 3 h: 0.63
[3]; [12]
  IC50: 15.2 ± 0.2 µM
[4]; Homo sapiens
  IC50: > 30 µM

## [O-]c1cccc2ccc(/C=N/CCN3CCOCC3)nc12.[O-]c1cccc2ccc(/C=N/CCN3CCOCC3)nc12.[Zn+2] [Zn(L2)2]
[1]
  log D7.4: +0.86 ± 0.09
[2]
  Thermodynamic solubility S7.4: 1674 µM
[3]; A375, 48 h incubation
  IC50: 10.3 ± 1.6 µM
[4]
  IC50: 24.4 ± 0.6 µM
  Selectivity index (SI): 2.4
A375 cells
  percentage of dead and apoptotic cells: 10%
[5]
  stability in aqueous media: did not show signs of decomposition
